{"source": "paper PMC6017193", "about": "“Structure-Based Discovery of a Series of 5H-Pyrrolo[2,3-b]pyrazine FGFR Kinase Inhibitors” (Molecules : A Journal of Synthetic Chemistry and Natural …, 2018)", "assay": "Human liver microsome stability test", "assay_type": "in vitro ADME", "conditions": "human liver microsomes, pH 7.4, 1 μM test compound, read-out: HLM (human liver microsome stability test, clearance)", "method": "Microsomes (Human microsome: Xenotech, Lot No.H0610; Rat microsome: Xenotech, Lot No. R1000) (0.5 mg/mL) were preincubated with 1 μM of test compound for 5 min at 37 °C in 0.1 M phosphate buffer (pH 7.4) with 1 mmol Ethylenediaminetetraacetic acid (EDTA), and 5 mmol MgCl2. The reactions were initiated by adding prewarmed cofactors (1 mmol NADPH). After 0-min, 5-min, 10-min, and 30-min incubations at 37 °C, the reactions were stopped by adding an equal volume of cold acetonitrile. The samples were vortexed for 10 min, and then centrifuged at 10,000× g for 10 min. Supernatants were analyzed by LC/MS/MS for the amount of the parent compound remaining, and the corresponding loss of the parent compound was also determined by LC/MS/MS.", "data": [{"smiles": "O=S(=O)(c1cn(CCF)cn1)n1ccc2ncc(-c3cn[nH]c3)nc21", "note": "[Compound 13, 5-((1-(2-fluoroethyl)-1H-imidazol-4-yl)sulfonyl)-3-(1H-pyrazol-4-yl)-5H-pyrrolo[2,3-b]pyrazine]", "values": [{"measurement": "microsomal CLint at 1 μM", "value": 1, "unit": "µL/min/mg"}]}]}
